Experimental data from ChEMBL document CHEMBL1140393, “Neamine dimers targeting the HIV-1 TAR RNA” (Bioorg Med Chem Lett, 2005).

Tests used:
Design in all cases: species or system Homo sapiens
[1] = Effect towards transactivation responsive RNA-binding protein at pH 7.5, (10 mM Tris-HCl, 150 mM KCl)by using fluorimetric competition assay
[2] = Effect against transactivation responsive RNA-binding protein at pH 7.4 (50 mM Tris-HCl […]) in fluorimetric competition assay
[3] = Effect against trans-activation responsive RNA-binding protein at pH 7.4 (50 mM Tris-HCl and 20 mM KCl) in fluorimetric competition assay

SMILES	IC50 [1] [nM]	IC50 [2] [nM]	IC50 [3] [nM]
CN(CC(=O)NCCCCCCO[C@H]1[C@H](O)[C@H](N)[C@@H](O[C@H]2[C@H](O)[C@H](O)[C@H](N)C[C@H]2N)O[C@H]1CN)CC(=O)NCCCCCCO[C@H]1[C@H](O)[C@H](N)[C@@H](O[C@H]2[C@H](O)[C@H](O)[C@H](N)C[C@H]2N)O[C@H]1CN	50	330	
NC[C@H]1O[C@H](O[C@H]2[C@H](O)[C@@H](O)[C@H](N)C[C@@H]2N)[C@H](N)[C@@H](O)[C@@H]1O [NEAMINE]	40000		10000
CN(CC(=O)NCCCCCCO[C@@H]1[C@H](O)[C@H](N)C[C@@H](N)[C@H]1O[C@H]1O[C@@H](CN)[C@@H](O)[C@H](O)[C@@H]1N)CC(=O)NCCCCCCO[C@@H]1[C@H](O)[C@H](N)C[C@@H](N)[C@H]1O[C@H]1O[C@@H](CN)[C@@H](O)[C@H](O)[C@@H]1N	1000	150	
NC[C@@H]1O[C@H](O[C@H]2[C@@H](O)[C@H](O[C@@H]3[C@@H](O)[C@H](N)C[C@H](N)[C@H]3O[C@H]3O[C@H](CN)[C@@H](O)[C@H](O)[C@H]3N)O[C@@H]2CO)[C@H](N)[C@@H](O)[C@@H]1O [FRAMYCETIN]	35000	7000	
NCC1OC(OC2C(N)CC(N)C(O)C2OCCCCCCNC(=O)CCC(=O)NCCCCCCOC2C(O)C(N)CC(N)C2OC2OC(CN)C(O)C(O)C2N)C(N)C(O)C1O (configuration not stated)	900	400	
NCC1OC(OC2C(N)CC(N)C(O)C2O)C(N)C(O)C1OCCCCCCNC(=O)CCC(=O)NCCCCCCOC1C(CN)OC(OC2C(N)CC(N)C(O)C2O)C(N)C1O (configuration not stated)	480	150	
